# In patent publication US6887902B2, “Anti-inflammatory method using gamma-aminobutyric acid (GABA) analogs” (Warner-Lambert Company, priority 1997, dated 2005):
# Legend:
# [1] = test system: kaolin and carrageenan knee joint arthritis; experiment: acute experimental arthritis by kaolin and carrageenan in the knee joint, spinal infusion of pregabalin or its R-isomer; settings: for PWL (thermal paw withdrawal latency) compared to baseline: 10 mg/mL infused into dorsal horn alone, before induction of arthritis; for thermal hyperalgesia (PWL) at 5.5 hours: 0.9 mg/mL infused into dorsal horn after development of arthritis; for PWL after infusion: 10 mg/mL infused after inflammation of the knee joint; for spontaneous pain (paw posture): both doses (0.9 and 10 mg/mL); for secondary thermal hyperalgesia (PWL) / abnormal paw posture indicative of spontaneous pain / reduction of knee joint swelling compared to aCSF rats: pre-treatment; for secondary thermal hyperalgesia (PWL): 10 mg/mL spinal infusion for 1.5 hours before kaolin and carrageenan, 4 hours post-injection; for abnormal paw posture indicative of spontaneous pain: spinal infusion before induction of arthritis; for reduction of knee joint swelling compared to aCSF rats: spinal infusion for 1.5 hours before induction of arthritis, P<0.05
# Experimental: Acute experimental arthritis was induced in rats by injection of kaolin and carrageenan into the knee joint. […] Concomitant with the injury to the joint tissue, both peripheral and central sensitization occurs, which is manifested in the awake rat as hyperalgesia, which can be easily quantified by measuring a reduction in paw withdrawal latencies to a radiant heat source. Both pregabalin and its R-stereoisomer (R-(−)-3-IBG) were administered before inflammation was induced, and after the inflammation was developed.
# Thirty-six male Sprague-Dawley rats (235-380 g) were anesthetized with sodium pentobarbital (Nembutal; 50 mg/kg^−1 i.p.). A microdialysis fiber (200 μm o.d., 45000 MW Cut-off, Hospal AN69) was coated with epoxy resin, except for a 2 mm section. A small midline incision was made in the back at the level of the last rib. The muscle was then removed from around the T12 vertebra and a hole drilled in both lateral aspects. The microdialysis fiber was then passed transversely through the dorsal horn of the spinal cord between lumbar segments L4-L6 so that the permeable 2 mm of the fiber lay in the dorsal horn. The microdialysis fiber was connected to PE20 tubing (Becton and Dickson) which was then tunneled under the skin to the nape of the neck. The fiber was stabilized with dental cement. Artificial cerebrospinal fluid (aCSF) was pumped through the tubing at a rate of 5 μL/min for 1 hour before the PE20 was sealed and the animals allowed to recover.
# As a measure of thermal hyperalgesia, animals were tested for paw withdrawal to radiant heat. On the day following fiber placement, animals were housed in small lucite cubicles on an elevated glass plate. Radiant heat was applied to the plantar surface of the heel of the hindpaw until the rat lifted the paw. The time at which this occurred was considered the paw withdrawal latency (PWL). Both paws were tested independently at 5-minute intervals, for a total of 5 trials. A mean of these five readings was used as the PWL. […] PWL was measured for a final time 4 hours after arthritis induction. In the post-treatment group, the animals were tested before induction of arthritis in the knee joint (control), 4-hours post-induction, and 1.5 hours after of drug infusion, i.e. 5.5 hours after arthritis induction. A decrease in the PWL to radiant heat in an animal with knee joint inflammation is indicative of secondary hyperalgesia.
# The circumference of the knee joint was also measured before injection of kaolin and carrageenan (control) using a flexible tape measure. The extent of guarding of the hindpaw was also noted after arthritis was induced. To quantify these changes, the animals were graded by a subjective pain rating scale (0-5), where: 0 is normal; 1 is curling of the toes; 2 is eversion of the paw; 3 is partial weight bearing; 4 is non-weight bearing and guarding; and 5 is avoidance of any contact with the hindlimb.
# Rats were anesthetized briefly with sodium methohexital (Brevital; 60 mg/kg^−1 i.p.) after the control behavioral test (post-treatment group) or after infusion of the drug (pre-treatment group). The knee joint was then injected with 3% kaolin and 3% carrageenan suspended in sterile saline (0.1 mL; pH 7.4). The knee joint was then flexed manually until the rat awoke (approximately 5 minutes).
# All GABA analogs were dissolved in an artificial cerebral spinal fluid solution (aCSF) (pH 7.4, adjusted by bubbling with 95% CO2/5% O2) and infused through the spinal cord at 5 μL/min^−1. The animals received either pregabalin, R-(−)-3-IBG, or aCSF.
# [2] = test system: SCW (PG-PS) induced reactivation arthritis, ankle swelling; experiment: streptococcal cell wall (SCW) induced reactivation arthritis assay; assay type: in vivo, Female Lewis rats
# Experimental: The assay is a streptococcal cell wall (SCW) induced reactivation arthritis assay. Female Lewis rats were injected intra-articularly with 10 μL of 100 p fraction peptidoglyean polysaccharide (PG-PS) suspended in phosphate buffered saline (PBS). The contralateral joints were injected with PBS as control. Systemic challenge with 100 μg of PG-PS was given via the tail vein 21 days after the initial inoculation. The animals were dosed orally three times a day with pregabalin (3, 10, and 30 mg/kg) on a 12-hour cycle for 72 hours. The first dose was given 1 hour before the systemic challenge.
# The volume of the ankles increased by about 0.5 mL within 72 hours. Pregabalin at 10 and 30 mg/kg dose dependently attenuated the increase in edema up to 40% during the 72-hour observation period.
SMILES,PWL (thermal paw withdrawal latency) compared to baseline [1],thermal hyperalgesia (PWL) at 5.5 hours ([1]; post-treatment),PWL after infusion ([1]; post-treatment),spontaneous pain (paw posture) ([1]; post-treatment),"comparison of the isomers in reducing thermal hyperalgesia ([1]; post-treatment, spinal infusion)",secondary thermal hyperalgesia (PWL) [1],abnormal paw posture indicative of spontaneous pain [1],reduction of knee joint swelling compared to aCSF rats [1],"attenuation of the increase in edema ([2]; 10 and 30 mg/kg oral, dose dependent, 72-hour observation period)","Swelling (delta edema, mL) ([2]; Day 22, pregabalin oral 3.0 mg/kg, vehicle group 0.20) [mL]","Swelling (delta edema, mL) ([2]; Day 22, pregabalin oral 10.0 mg/kg, vehicle group 0.20) [mL]","Swelling (delta edema, mL) ([2]; Day 22, pregabalin oral 30.0 mg/kg, vehicle group 0.20) [mL]","Swelling (delta edema, mL) ([2]; Day 23, pregabalin oral 3.0 mg/kg, vehicle group 0.45) [mL]","Swelling (delta edema, mL) ([2]; Day 23, pregabalin oral 10.0 mg/kg, vehicle group 0.45) [mL]","Swelling (delta edema, mL) ([2]; Day 23, pregabalin oral 30.0 mg/kg, vehicle group 0.45) [mL]","Swelling (delta edema, mL) ([2]; Day 24, pregabalin oral 3.0 mg/kg, vehicle group 0.50) [mL]","Swelling (delta edema, mL) ([2]; Day 24, pregabalin oral 10.0 mg/kg, vehicle group 0.50) [mL]","Swelling (delta edema, mL) ([2]; Day 24, pregabalin oral 30.0 mg/kg, vehicle group 0.50) [mL]"
"CC(C)C[C@H](CN)CC(=O)O [Pregabalin, (S)-3-(aminomethyl)-5-methylhexanoic acid]",did not change PWL,reduced the thermal hyperalgesia,return of the PWL to the control value,spontaneous pain was also reduced,more effective in reducing thermal hyperalgesia than its R-isomer,no secondary thermal hyperalgesia was observed,prevented the development of abnormal paw posture,approximately 30%,up to 40%,0.12,0.04,0.06,0.38,0.25,0.20,0.50,0.31,0.21
CC(C)C[C@@H](CN)CC(=O)O [R-(−)-3-IBG],did not change PWL,reduced the thermal hyperalgesia,return of the PWL to the control value,spontaneous pain was also reduced,–,no secondary thermal hyperalgesia was observed,prevented the development of abnormal paw posture,approximately 30%,–,–,–,–,–,–,–,–,–,–
